Results published in US12357612B2, “Prophylactic or therapeutic agent for cancer” (TOHOKU UNIVERSITY, priority 2019, dated 2025).

Tests used:
[1] = tested on: model mice of colorectal cancer (AOM/DSS); test: Model mice of colorectal cancer (AOM/DSS), oral administration; format: in vivo, ICR mice; conditions: for ratio of tumor area in the colon / number of tumors having a diameter of more than 2 mm / tumor area in the colon: versus placebo group; for ratio of tumor area in the colon: FIG. 2A; for number of tumors having a diameter of more than 2 mm: FIG. 2B; for colon length: shortening in placebo group versus control group, FIG. 1B; for tumor area in the colon: FIG. 1A
Protocol: Model mice of colorectal cancer were prepared using azoxymethane (AOM; manufactured by Wako Pure Chemical Industries, Ltd.) and dextran sulfate sodium (DSS, manufactured by MP Biomedicals). Specifically, 5-week-old male ICR mice (produced by CLEA Japan) were first acclimated and bred for 1 week. At 6 weeks of age, the mice were randomly divided in a control group and 5 colorectal cancer groups (placebo group, Present Compound #1[1] group, Present Compound #1[10] group, Present Compound #2[1] group, and Present Compound #2[10] group), and 10 (mg/kg body weight) of AOM was intraperitoneally administered to the colorectal cancer groups. Seven days later, the mice were allowed to freely drink 2.5% (w/v) DSS for 1 week, and then tap water for 14 days. This administration of DSS was performed for […] to prepare model mice of colorectal cancer. When the above AOM was intraperitoneally administered (that is, at 6 weeks of age), physiological saline solutions containing 1 (mg/kg body weight/day) and 10 (mg/kg body weight/day) of the Present Compound #1 were orally administered for 70 consecutive days thereafter to the Present Compound #1(1) group and the Present Compound #1(10) group, respectively, physiological saline solutions containing 1 (mg/kg body weight/day) and 10 (mg/kg body weight/day) of the Present Compound #2 were orally administered for 70 consecutive days thereafter to the Present Compound #2(1) group and the Present Compound #2(10) group, respectively, and a physiological saline solution was orally administered for 70 consecutive days thereafter to the placebo group. In addition, to the control group, a physiological saline solution was orally administered at 6 weeks of age for 70 consecutive days thereafter. All mice were sacrificed and the colons were harvested immediately after the end of the third cycle. The colons were photographed in full length and the colon length (see FIG. 1B), as well as the tumor area in the colon (see FIG. 1A), the ratio of tumor area in the colon (see FIG. 2A), and the number of tumors having a diameter of more than 2 mm (see FIG. 2B) were measured. Note that, for the tumors, the elevated lesions that were thought to contain cancer were visually observed in the colon (large intestine), and the area of these elevated lesions (that is, the tumors) and the total colon area were calculated by NIH Image J version 1.51 (US National Institutes of Health, MD, http://imagej.nih.gov/ij/index.html). The ratio of tumor area in the colon was calculated based on the formula “(elevated lesion area/total colon area)×100”.
Student's t-test was used for the comparison between two groups, and Dunnet's test or Tukey's test was used for the comparison between three groups. The survival rate (see FIG. 3) was evaluated by a log-rank test using the Kaplan-Meier survival curve. JMP version 14 (manufactured by SAS Institute) was used for statistical analysis. For all test results, p-values less than 0.05 were considered statistically significant.

[2] = tested on: colorectal cancer cell line HCT116; test: Cell migration test; format: cell-based, human; conditions: 50 μM, 48 hours, HCT116, 20% FBS as attractant; versus absence of compound; FIG. 4
Protocol: Cells of the human colorectal cancer cell line HCT116 (obtained from ATCC) were cultured and maintained in a DMEM (Dulbecco's Modified Eagle Medium) culture solution (manufactured by Sigma-Aldrich) containing 10% fetal bovine serum (FBS) (manufactured by Biowest) and 1% penicillin-streptomycin (manufactured by Thermo Fisher Science) under the conditions of 5% CO2/20% O2 and 37° C.
7.5×10^4 cells of the colorectal cancer cell line HCT116 were seeded in each well of the Corning Fluoroblok 24-Multiwell Insert Systems (pore size: 8.0 μm) (manufactured by Corning), and cultured for 48 hours in FBS-free DMEM culture solution or FBS-free DMEM culture solution containing 50 μM of the Present Compound #2. Note that a DMEM culture solution containing 20% FBS, which is an attractant, was added to the chamber at the bottom of the plate. The migrating cells that had passed through the membrane on the lower surface of the cell culture insert were stained using a Diff-Quik kit (manufactured by Sysmex), the membrane was air-dried, and then the number of cells was measured in three fields of view using a phase-contrast microscope.
Student's t-test was used for the comparison between two groups, and Dunnet's test or Tukey's test was used for the comparison between three groups. The survival rate (see FIG. 3) was evaluated by a log-rank test using the Kaplan-Meier survival curve. […]

[3] = 1 mg/kg body weight/day orally for 70 consecutive days
[4] = 10 mg/kg body weight/day orally for 70 consecutive days

| Structure (SMILES) | ratio of tumor area in the colon [1, 3] | number of tumors having a diameter of more than 2 mm [1, 3] | colon length [1, 4] | tumor area in the colon [1, 4] | ratio of tumor area in the colon [1, 4] | number of tumors having a diameter of more than 2 mm [1, 4] | colon length [1, 3] | tumor area in the colon [1, 3] | survival ([1]; 10 mg/kg body weight/day orally, 4 out of 8 mice died in the placebo group, FIG. 3) | cell migration level [2] |
| --- | --- | --- | --- | --- | --- | --- | --- | --- | --- | --- |
| O=C(CC(C(=O)O)c1c[nH]c2ccccc12)c1ccc(F)cc1F (centres unmarked) [Present Compound #1, 4-(2,4-difluorophenyl)-2-(1H-indole-3-yl)-4-oxo-butanoic acid] | smaller | smaller | shortening was suppressed | smaller | smaller | smaller |  |  |  |  |
| COc1cc(COc2ccc3[nH]cc(CC(=O)O)c3c2)cc(OC)c1 [Present Compound #2, 5-(3,5-dimethoxybenzyloxy)-3-indoleacetic acid] |  |  | shortening was suppressed | smaller | smaller | smaller | shortening was suppressed | smaller | all 8 mice survived | lower |
